Entries after “also recorded” stand apart in the source; their conditions may differ.
What was measured:
Assay type in all cases: cell-based, human
ASCs = assay: Post-thaw treatment with NAC in plating medium: cell growth after thawing
Procedure: A 600 mM stock of NAC (SIGMA) was prepared in Milli-Q water (Millipore). This stock was used for pre-treatment and post-treatment by adding directly 50 μL stock solution per well into 5 mL of medium, making a final concentration of 6 mM. For 2 mM, only 16.7 μL were added per well, and in the case of 12 mM, 100 μL of stock were added. DMSO was used as the vehicle for sc79 and LY294. The effect of post-thaw treatment with different concentrations of NAC (post-thaw NAC treatment) on cell growth was also studied. ASCs were frozen (without NAC pretreatment), thawed as discussed above, and then treated with three different NAC concentrations (2, 6 and 12 mM) in complete DMEM prior to plating, and the cell numbers at day 4, 11 and 14 were analysed.

[1] = tested on: mature dendritic cells (mDC); assay: Phagocytosis of Staphylococcus aureus particles by mDC co-cultured with ASCs; conditions: NAC-pretreated ASCs, non-contact co-culture (FIG. 12)
Procedure: After differentiation in monoculture or co-culture in vitro (the differentiation conditions, including the cytokines used, concentrations and times of differentiation, are provided in Example 7), macrophages and mDC were harvested using 0.05% Trypsin-EDTA for 10 minutes at 37° C. The phagocytic potential of polarized macrophages or mDC was assessed using pHRodo Red-conjugated S. aureus particles (Life Technologies #A10010) following manufacturer's instructions. Briefly, 50,000 mDC were transferred to a 96-well U bottom wells (Corning #3799) and the cells were rested for 60 minutes in RPMIc. Lyophilized pHRodo conjugated particles were reconstituted in 1 mL of RPMIc per vial prior to use, and particles were sonicated for 5 minutes at 20% amplitude. Then, 50 μL of pHRodo […] were added per well and the cells were incubated for 60 minutes in normoxia at 37° C. Afterwards, phagocytosis was stopped on ice and cells were washed and stained with 5 μL 7-aminoactinomycin D (7AAD) prior to FACS analysis in Fortessa cytometer (BD). Negative controls for phagocytosis were cells without pHRodo reagent. Results were analysed in FlowJo software. The intensity of the fluorescence in the PE channel is proportional to the amount of bacterial particles phagocytosed per cell.

[2] = tested on: CD206 and CD163 on mature dendritic cells; assay: Surface expression of phagocytic receptors CD206 and CD163 by mDC co-cultured with ASCs (flow cytometry); conditions: NAC-pretreated ASCs, donors A and B (FIGS. 13, 14)
Procedure: After differentiation in monoculture or co-culture in vitro (the differentiation conditions, including the cytokines used, concentrations and times of differentiation, are provided in Example 7), macrophages and mDC were harvested using 0.05% trypsin-EDTA for 10 minutes at 37° C., after supernatants were collected and frozen for future cytokine and/or HPLC analysis. After mDC were counted, they were distributed into 96-well V bottom plates for staining (Nunc #249570). Cells were incubated in Blue MACS buffer with 1% human serum for 15 minutes on ice, to block Fcγ receptor-mediated nonspecific antibody binding. Subsequently, cells were stained for 20 minutes on ice with the following antibody mixes (staining in 50 μL of 1:10 antibody dilution; except for CD64, which was 1:20 dilution): Cell viability was assessed by addition of 5 μL of 7AAD per well and staining for 10 minutes on ice, and samples were acquired in a BD Fortessa cytometer. Results were analysed in FSC Express software.

[3] = tested on: mature dendritic cells (mDC); assay: Co-culture of monocytes with ASCs: mDC differentiation, activation clusters (microscopy); conditions: NAC-pretreated ASCs, donors A and B, transwell co-culture (FIGS. 10, 11)
Procedure: Frozen vials of PBMCs were thawed, counted and CD14^+ CD16^− monocytes were isolated using the Dynabeads Untouched Human Monocytes kit (Dynal #11350D), following the manufacturer's instructions.
Isolated CD14^+ CD16^− monocytes (see above) were plated in 5 mL of RPMIc at 1.5 million cells per 6-well (Falcon #353046), in normoxia. The following factors were added for differentiation into non-polarized M0 macrophages or further polarization into M1, M2 macrophages and mature dendritic cells (mDC) populations in monocultures (based on several publications, including Beyer et al., PLoS One (2012) 7(9): e45466; Erbel et al., J. Vis. Exp. (2013) 76: e50332; Zhou et al, 2014; Tarique et al, American Journal of Respiratory Cell and Molecular Biology 2015; 53(5):676-688.
Immature DC (iDC): RPMIc+5 ng/mL GM-SCF+10 ng/mL IL-4 for 5 days Maturation of DC (mDC): at day 5, add 40 ng/mL LPS (i.e. add 500 μL/well of RPMIc supplemented with 400 ng/mL LPS to the pre-existing media). Human recombinant GM-CSF (#100-22B) and IL-4 (#200-04) were from Peprotech. LPS (#L8274) was from SIGMA. The addition of GM-C SF and IL4 mediates the differentiation to immature dendritic cells (iDC); 5 days later addition of LPS induces the maturation of iDCs to mDCs, and after 2 days the phenotype and function of these mature DC were analysed in the presence or absence of the ASC. Co-Culture Experiments with ASCs […]

Question: CC(=O)N[C@@H](CS)C(=O)O [NAC, N-Acetylcysteine] was tested. Which “number of viable cells” value (ASCs; post-thaw treatment with 2 mM NAC, 7 days of culture (FIG. 6)) did it give?
Answer: ~6,300 cells/cm^2

Question: What about the “number of viable cells” value (ASCs; post-thaw treatment with 2 mM NAC, 11 days of culture (FIG. 6)) of the same molecule?
Answer: ~18,700 cells/cm^2

Question: What about the “number of viable cells” value (ASCs; post-thaw treatment with 2 mM NAC, 14 days of culture (FIG. 6)) of the same molecule?
Answer: ~18,300 cells/cm^2

Question: And the growth rate (ASCs; post-thaw treatment with 2 mM NAC, between days 7 and 11 (FIG. 6))?
Answer: approximately 3100 cells/cm^2/day

Question: What about the “cell number versus non-treated” value (ASCs; post-thaw treatment with 2 mM NAC, sustained up to 2 weeks in culture (FIG. 6)) of the same molecule?
Answer: increase in cell number

Question: And the “cell density versus non-treated” value (ASCs; post-thaw treatment with 6 mM NAC (FIG. 6))?
Answer: lower cell densities

Question: And the “cell density versus non-treated” value (ASCs; post-thaw treatment with 12 mM NAC (FIG. 6))?
Answer: lower cell densities

Question: What about the “ability of ASCs to increase phagocytosis potential of mDCs” value [1] of the same molecule?
Answer: did not alter their ability to increase the phagocytosis potential of mDCs

Question: And the “ASC-mediated upregulation of CD206 and CD163 on mDC” value [2]?
Answer: this upregulation was intact; also recorded: did not alter these effects

Question: What about the “ASC modulation of mDC activation (no activation clusters)” value [3] of the same molecule?
Answer: not disrupted

From patent US20220104481A1, “CRYOPRESERVATION OF STEM CELLS” (TiGenix, S.A.U., priority 2019, published 2022)
